Assay results published in PubChem BioAssay (NCI).
“And” between values parts separate entries of the source, which are not always exact repeats. Equal entries are not always repeated.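 Interpolation was linear, between the two tested concentrations surrounding the appropriate level; five concentrations were tested over 48 hours in 96-well plates. Abbreviation: GI50, concentration required for 50% inhibition of growth. Definition used: TGI = concentration required for complete inhibition of growth.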

Tests used:
Experiment in all cases: growth of human tumour cells (NCI), 48 h
SK-MEL-5 melanoma = tested on: SK-MEL-5 melanoma
MDA-MB-435 = tested on: MDA-MB-435
HCT-15 colon = tested on: HCT-15 colon
RPMI-8226 leukemia = tested on: RPMI-8226 leukemia
SN12C renal = tested on: SN12C renal
SF-539 CNS = tested on: SF-539 CNS
HCT-116 colon = tested on: HCT-116 colon
DMS 273 small cell lung = tested on: DMS 273 small cell lung
KM20L2 colon = tested on: KM20L2 colon
HCC-2998 colon = tested on: HCC-2998 colon

CC(C)=CCC(OC(=O)C=C(C)C)C1=CC(=O)c2c(O)ccc(O)c2C1=O (stereo not drawn)
GI50 (SK-MEL-5 melanoma): 4.15 µM
TGI (SK-MEL-5 melanoma): 14.4 µM and 1.59 µM
GI50 (MDA-MB-435): 2.09 µM
TGI (MDA-MB-435): 4.77 µM
GI50 (HCT-15 colon): 1.07 µM
TGI (HCT-15 colon): 3.22 µM and 1.13 µM
GI50 (RPMI-8226 leukemia): 0.724 µM
GI50 (SN12C renal): 1.9 µM
TGI (SN12C renal): 3.94 µM and 2.92 µM
GI50 (SF-539 CNS): 2.02 µM
TGI (SF-539 CNS): 4.46 µM and 4.93 µM
GI50 (HCT-116 colon): 0.63 µM
TGI (HCT-116 colon): 2.68 µM and 1.04 µM
TGI (DMS 273 small cell lung): 5.53 µM
TGI (KM20L2 colon): 5.64 µM
GI50 (HCC-2998 colon): 12.7 µM
TGI (HCC-2998 colon): 26.7 µM and 6.44 µM

C[Si](C)(C)/C=C\CCO
TGI (SK-MEL-5 melanoma): > 100 µM
TGI (HCT-15 colon): > 100 µM
TGI (RPMI-8226 leukemia): > 100 µM
TGI (SN12C renal): > 100 µM
TGI (SF-539 CNS): > 100 µM
TGI (HCT-116 colon): > 100 µM
TGI (DMS 273 small cell lung): > 100 µM
TGI (KM20L2 colon): > 100 µM
TGI (HCC-2998 colon): > 100 µM

COc1ccc(CCc2cc(OC)cc(OC)c2)cc1
TGI (SK-MEL-5 melanoma): > 87 µM
TGI (HCT-15 colon): > 100 µM
TGI (RPMI-8226 leukemia): 94.8 µM
TGI (SN12C renal): > 100 µM
TGI (SF-539 CNS): > 100 µM
TGI (HCT-116 colon): > 100 µM
TGI (DMS 273 small cell lung): > 100 µM
TGI (KM20L2 colon): > 58 µM
TGI (HCC-2998 colon): 51.2 µM

Cc1c(NC(=S)NC(=O)c2ccc([N+](=O)[O-])cc2)c(=O)n(-c2ccccc2)n1C
TGI (SK-MEL-5 melanoma): > 100 µM
TGI (HCT-15 colon): > 100 µM
TGI (RPMI-8226 leukemia): > 100 µM
TGI (SN12C renal): > 100 µM
TGI (SF-539 CNS): > 100 µM
TGI (HCT-116 colon): > 100 µM
TGI (DMS 273 small cell lung): > 100 µM
TGI (KM20L2 colon): > 100 µM
TGI (HCC-2998 colon): > 100 µM

CCOC(=O)CCn1ncc(Cl)c(Cl)c1=O
TGI (SK-MEL-5 melanoma): 25.3 µM
TGI (HCT-15 colon): 4.69 µM
TGI (RPMI-8226 leukemia): 15.3 µM
TGI (SN12C renal): 29.3 µM
TGI (SF-539 CNS): 27.3 µM
TGI (HCT-116 colon): 24.2 µM
TGI (DMS 273 small cell lung): 27 µM
TGI (KM20L2 colon): 31.4 µM
TGI (HCC-2998 colon): 10.4 µM

O=C1/C(=C/c2ccccc2)CN(C(=O)CCN2CCCC2)C/C1=C\c1ccccc1
TGI (SK-MEL-5 melanoma): 3.48 µM
TGI (MDA-MB-435): 3.24 µM
TGI (HCT-15 colon): 3.97 µM
TGI (RPMI-8226 leukemia): 2.46 µM
TGI (SN12C renal): 3.16 µM
TGI (SF-539 CNS): 5.4 µM
TGI (HCT-116 colon): 0.674 µM
TGI (DMS 273 small cell lung): 3.58 µM
TGI (KM20L2 colon): 3.91 µM
TGI (HCC-2998 colon): 3.22 µM
